In publication PMC13192270, “RhlR quorum-sensing receptor ligand sensitivity regulates the differential expression of phenazine genes in Pseudomonas aeruginosa” (Journal of Bacteriology, 2026):

Target: T1, RhlR (T58F) (Pseudomonas aeruginosa, UniProt P54292, T58F)
T1 construct: expressed in transfected cells; host or cells: E. coli carrying pBAD-A-rhlR mutant, pCS26-prhlA-luxCDABE and pACYC-pqsE or empty pACYC
T1 sequence (P54292 1-241 T58F): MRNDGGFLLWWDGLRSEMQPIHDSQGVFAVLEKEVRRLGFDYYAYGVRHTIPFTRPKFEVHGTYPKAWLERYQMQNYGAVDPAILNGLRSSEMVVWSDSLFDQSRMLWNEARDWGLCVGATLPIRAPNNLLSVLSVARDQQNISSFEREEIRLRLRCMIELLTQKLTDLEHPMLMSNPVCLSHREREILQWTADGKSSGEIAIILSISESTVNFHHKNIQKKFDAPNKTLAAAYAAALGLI
Assay: E. coli prhlA-luxCDABE luciferase reporter assay
Assay type: cell-based, Escherichia coli
Text: Previous analysis of the RhlR LBP focused on highly conserved residues that were known from other AHL-binding proteins to be important contacts for AHL molecules, particularly the lactone head group. We performed conservation analyses on 300 LuxR-type receptors to determine variable and moderately conserved residues in the LBP (Fig. 1B) and, in conjunction with our previously determined experimental structure of WT RhlR bound to the synthetic agonist mBTL, used for docking C4- and C6HSL. Based on our docking simulations, C4- and C6HSL occupy a similar position in the LBP as mBTL, a highly efficacious activator of RhlR (Fig. 1C; Fig. S1). We targeted residues A44, G46, T58, L69, Y72, D81, I84, W96, and W108 (Fig. 1B and C). These residues were selected because of their proximity to the acyl tail of C4HSL, as well as the differences in conservation that are observed at these sites. We used an E. coli luciferase reporter assay to monitor ligand-dependent activation of WT RhlR and RhlR variants. WT RhlR and RhlR variants were expressed under the control of an arabinose-inducible promoter (Fig. S2). Transcription was monitored by light production via the expression of the luxCDABE operon controlled by the RhlR-dependent promoter of rhlA. Binding of RhlR to the rhlA promoter is highly dependent on the C4HSL-RhlR interaction, based on ChIP-seq analyses performed in P. aeruginosa as well as previously published E. coli reporter systems ([34], [39]). After expressing WT RhlR and RhlR variants in the E. coli reporter system, we performed dose response assays using C4HSL to calculate the concentration of C4HSL required to activate the reporter system to 50% maximum levels (EC50 value; Table 1). As expected, transcription activation by WT RhlR increased with increased C4HSL levels, with an EC50 value of ~2 µM. We observed a range of responses. Figure 1C depicts the targeted residues, which are colored based on the effect of amino acid substitution.
RhlR requires the accessory-binding protein, PqsE, for maximal activity. To determine if PqsE expression altered the activation of RhlR variants, we assessed AHL-dependent RhlR activation of the prhlA-luxCDABE reporter in the presence of a third plasmid that constitutively expresses PqsE in E. coli. […] RhlR variants that were still active but with increased EC50 values for C4HSL could have their activity enhanced by PqsE. […] Thus, alterations to the LBP can diminish the additive effect of PqsE-dependent transcription, indicating a potential role of allosteric conformational changes dependent on ligand occupancy. […] RhlR variants at residues I84 and W108 could not be activated by C4HSL, and thus, light levels remained low at all concentrations that were tested. Unlike the aforementioned variants, RhlR I84M/W and RhlR W108F/Y were activated by the expression of PqsE (Fig. S4).
All E. coli strains in this study were grown overnight with shaking in 5 mL Luria-Bertani (LB) media supplemented with 100 µg/mL ampicillin, 50 µg/mL kanamycin, and 15 µg/mL tetracycline at 37°C overnight. Overnight cultures were diluted 1:100 into fresh media, grown at 37°C with shaking for 2 h until reaching OD600 = 0.4. Cultures were induced with a final concentration of 0.1% arabinose, and 198 μL of the induced culture was mixed with 2 μL of C4HSL dilutions in a clear-bottom, black-opaque 96-well plate (Corning) and grown at 37°C with shaking for 4 h. The C4HSL dilution series was performed 1:1 in dimethyl sulfoxide (DMSO) with a top final concentration of 10 μM. Luminescence and optical density were recorded using a Glomax (Promega) plate reader.

`CCCC(=O)N[C@H]1CCOC1=O` [C4HSL, N-butyryl-L-homoserine lactone] showed an EC50 (Vector (no pqsE)) of 3210 nM and an EC50 (pqsE co-expressed) of 198 nM.
